Assay results taken from ChEMBL document CHEMBL4364298.
The source made the active and inactive calls. The calls are words filed in the database; no cut-off is given here.

target: Histamine H1 receptor (Homo sapiens) (UniProt P35367); experiment: Antagonist activity at H1R in human HeLa cells assessed as inhibition of histamine-induced intracellular calcium mobilization at 10 times Ki incubated for 18 to 20 hrs prior to Fluo-4NW dye addition for 1 hr followed by compound washout and subsequent stimulation with histamine at 5 mins interval and measured up to 2 hrs by fluorescence assay; type: functional, cell-based
Sequence (P35367 whole entry): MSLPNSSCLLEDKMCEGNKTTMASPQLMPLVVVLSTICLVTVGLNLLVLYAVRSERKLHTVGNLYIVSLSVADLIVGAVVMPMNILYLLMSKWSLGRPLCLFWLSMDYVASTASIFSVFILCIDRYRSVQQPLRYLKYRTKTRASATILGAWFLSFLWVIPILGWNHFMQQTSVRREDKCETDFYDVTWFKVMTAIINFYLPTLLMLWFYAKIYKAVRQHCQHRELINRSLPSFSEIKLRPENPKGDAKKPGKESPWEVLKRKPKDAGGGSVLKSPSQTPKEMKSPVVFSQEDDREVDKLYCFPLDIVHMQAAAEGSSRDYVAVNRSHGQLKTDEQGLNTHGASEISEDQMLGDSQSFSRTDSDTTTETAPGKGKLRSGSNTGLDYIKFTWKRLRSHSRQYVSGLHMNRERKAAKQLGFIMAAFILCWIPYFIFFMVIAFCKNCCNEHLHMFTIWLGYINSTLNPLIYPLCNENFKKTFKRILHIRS

Row | Compound | inhibition
1 | Clc1ccc2c(c1)CCc1cccnc1C2=C1CCN(CC2CC2)CC1 | 100%
2 | Clc1ccc2c(c1)CCc1cccnc1C2=C1CCN(CC2CCCC2)CC1 | 100%
3 | Cc1cncc(CN2CCC(=C3c4ccc(Cl)cc4CCc4cccnc43)CC2)c1 | Active
4 | Clc1ccc2c(c1)CCc1cccnc1C2=C1CCN(CC2CCC2)CC1 | 100%
